How the values were obtained:
Hepatitis C virus = assay: Antiviral activity against Hepatitis C virus infected in human Huh7.5 cells assessed as reduction in viral RNA level after 72 hrs by RT-PCR method; format: functional, cell-based, Hepacivirus hominis; conditions: Huh7.5, 72 h
[1] = Cytotoxicity against human Huh7.5 cells after 72 hrs by MTT assay; format: cell-based
[2] = Selectivity index, ratio of CC50 for human Huh7.5 cells to EC50 for Hepatitis C virus infected in human Huh7.5 cells; format: toxicity, cell-based; conditions: read-out: Ratio CC50/EC50
[3] = Acute toxicity in Kunming mouse administered as single oral dose measured for 7 days; conditions: in vivo
[4] = Tmax in Sprague-Dawley rat at 25 mg/kg, po administered as single dose; format: ADME, organism-based; conditions: in vivo
[5] = Cmax in Sprague-Dawley rat at 25 mg/kg, po administered as single dose; format: ADME, organism-based; parameters: dose 25 mg/kg, route oral; conditions: in vivo
[6] = AUC (0 to t) in Sprague-Dawley rat at 25 mg/kg, po administered as single dose; format: ADME, organism-based; conditions: in vivo
[7] = AUC (0 to infinity) in Sprague-Dawley rat at 25 mg/kg, po administered as single dose; format: ADME, organism-based; parameters: dose 25 mg/kg, route oral, time infinity; conditions: in vivo
[8] = Mean residence time in Sprague-Dawley rat at 25 mg/kg, po administered as single dose; format: ADME, organism-based; conditions: in vivo
[9] = Half life in Sprague-Dawley rat at 25 mg/kg, po administered as single dose; format: ADME, organism-based; conditions: in vivo

EC50 (Hepatitis C virus) [µM]	Structure (SMILES)	CC50 at 72 h [1] [µM]	selectivity ratio [2]	LD50 at 168 h [3] [mg/kg]	Tmax [4] [h]	Cmax [5] [nM]	AUC(0-t) [6] [µM·h]	AUC(0-inf) [7] [µM·h]	MRT [8] [h]	half-life [9] [h]
22.7	COc1ccc(CN2C[C@@H]3CCCN4CCC[C@@H]([C@H]34)[C@H]2CCCC(=O)O)cc1	> 500	> 22							
> 167	O=C(O)C[C@@H]1[C@H]2CCCN3CCC[C@@H](CN1Cc1ccc(C(F)(F)F)cc1)[C@@H]23	244								
3.03	COC(=O)C[C@@H]1[C@H]2CCCN3CCC[C@@H](CN1C(=O)c1ccc(OC)cc1)[C@@H]23	> 500	> 165							
4.95	CCCN1C[C@@H]2CCCN3CCC[C@@H]([C@H]23)[C@H]1CCO	> 500	> 101							
8.06	CCOc1ccc(CN2C[C@@H]3CCCN4CCC[C@@H]([C@H]34)[C@H]2CC(=O)OC)cc1OC	> 500	> 62							
47.5	Cc1ccc(CN2C[C@@H]3CCCN4CCC[C@@H]([C@H]34)[C@H]2CC(=O)O)cc1	> 500	> 10.5							
104	O=C(O)C[C@@H]1[C@H]2CCCN3CCC[C@@H](CN1Cc1ccc([N+](=O)[O-])cc1)[C@@H]23	> 500	> 4.81							
6.71	COc1cccc(CN2C[C@@H]3CCCN4CCC[C@@H]([C@H]34)[C@H]2CCO)c1OC	305	45.5							
5.18	OCC[C@@H]1[C@H]2CCCN3CCC[C@@H](CN1Cc1ccc(F)cc1F)[C@@H]23	217	41.9							
21.2	O=C(O)C[C@@H]1[C@H]2CCCN3CCC[C@@H](CN1Cc1ccc(Cl)c(Cl)c1)[C@@H]23	141	6.65							
7.14	COC(=O)C[C@@H]1[C@H]2CCCN3CCC[C@@H](CN1Cc1ccccc1C)[C@@H]23	230	32.2							
24.6	COc1ccc(C(=O)N2C[C@@H]3CCCN4CCC[C@@H]([C@H]34)[C@H]2CCCC(C)(C)O)cc1	362	14.7							
1.09	COC(=O)C[C@@H]1[C@H]2CCCN3CCC[C@@H](CN1Cc1ccc(F)cc1F)[C@@H]23	128	118							
114	O=C(O)C[C@@H]1[C@H]2CCCN3CCC[C@@H](CN1Cc1ccccc1)[C@@H]23	> 500	> 4.39							
5.36	CCOc1ccc(CN2C[C@@H]3CCCN4CCC[C@@H]([C@H]34)[C@H]2CCO)cc1OC	> 500	> 93.3							
3.5	O=[N+]([O-])c1ccc(CN2C[C@@H]3CCCN4CCC[C@@H]([C@H]34)[C@H]2CCO)cc1	118	33.7							
86.4	Cc1cccc(CN2C[C@@H]3CCCN4CCC[C@@H]([C@H]34)[C@H]2CC(=O)O)c1	> 500	> 5.78							
2.29	COC(=O)C[C@@H]1[C@H]2CCCN3CCC[C@@H](CN1Cc1ccc(C)cc1)[C@@H]23	215	93.7							
2.58	CCCCN1C[C@@H]2CCCN3CCC[C@@H]([C@H]23)[C@H]1CCO	> 500	> 193							

Structure (SMILES)	EC50 (Hepatitis C virus) [µM]	CC50 at 72 h [1] [µM]	selectivity ratio [2]	LD50 at 168 h [3] [mg/kg]	Tmax [4] [h]	Cmax [5] [nM]	AUC(0-t) [6] [µM·h]	AUC(0-inf) [7] [µM·h]	MRT [8] [h]	half-life [9] [h]
COc1ccc(CN2C[C@@H]3CCCN4CCC[C@@H]([C@H]34)[C@H]2CCO)cc1	3.2	309	96.6	> 250	0.33	310	0.5	0.56	1.6	2.08
COC(=O)C[C@@H]1[C@H]2CCCN3CCC[C@@H](CN1Cc1ccc(OC)cc1)[C@@H]23	7.81	392	50.2	> 250	0.5	360	0.67	0.69	2.25	6.36
COc1ccc(CN2C[C@@H]3CCCN4CCC[C@@H]([C@H]34)[C@H]2CC(=O)O)cc1	27.6	> 500	> 18.1	> 500	0.42	4960	8.59	8.59	2.16	2.54
O=C(O)C[C@@H]1[C@H]2CCCN3CCC[C@@H](CN1Cc1ccncc1)[C@@H]23	47.2	> 500	> 10.6							

From ChEMBL document CHEMBL4049412, “Evolution of matrinic ethanol derivatives as anti-HCV agents from matrine skeleton” (Bioorg Med Chem Lett, 2017)
